Results reported in PubChem BioAssay AID652222 (The Scripps Research Institute Molecular Screening Center, 2013).

target: Serine/threonine-protein phosphatase PP1-alpha catalytic subunit (Homo sapiens) (UniProt P62136); test: PP1 inhibitor potency with OMFP substrate, dose response, biochemical, fluorescence, set 1 (AID 652222); settings: purified PP1alpha, OMFP dephosphorylation
Sequence (P62136 whole entry, looked up): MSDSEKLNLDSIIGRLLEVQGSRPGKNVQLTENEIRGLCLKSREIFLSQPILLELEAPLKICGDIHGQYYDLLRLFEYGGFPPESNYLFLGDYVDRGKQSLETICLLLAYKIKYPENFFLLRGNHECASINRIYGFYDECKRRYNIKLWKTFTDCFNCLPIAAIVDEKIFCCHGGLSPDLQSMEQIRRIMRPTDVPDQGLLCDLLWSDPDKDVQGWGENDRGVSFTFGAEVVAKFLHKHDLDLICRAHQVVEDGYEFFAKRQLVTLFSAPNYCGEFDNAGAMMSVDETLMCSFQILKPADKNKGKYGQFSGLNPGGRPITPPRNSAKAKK

IC50, active:
COc1ccc(C(c2ccc3cccnc3c2O)N2CCN(C)CC2)nc1 (stereo not drawn) 1690 nM
Oc1c(C(c2ccccn2)N2CCN(c3ccccc3F)CC2)cc(Cl)c2cccnc12 (stereo not drawn) 2410 nM
Oc1c(C(c2ccccn2)N2CCCC2)ccc2cccnc12 (stereo not drawn) 1410 nM
Cc1ccc2ccc(C(c3ccccn3)N3CCN(C)CC3)c(O)c2n1 (stereo not drawn) 1440 nM
CN1CCC(NC(c2ccccn2)c2ccc3cccnc3c2O)CC1 (stereo not drawn) 2500 nM
COc1cccc(C(c2ccc3cccnc3c2O)N2CCN(C)CC2)n1 (stereo not drawn) 8870 nM
Cc1cccnc1C(c1ccc2cccnc2c1O)N1CCN(C)CC1 (stereo not drawn) 1480 nM
CN1CCN(C(c2ccc3cccnc3c2O)c2ncccc2C(F)(F)F)CC1 (stereo not drawn) 1120 nM
CC1CCN(C(c2ccccn2)c2cc(Cl)c3cccnc3c2O)CC1 (stereo not drawn) 1450 nM
CN1CCN(C(c2ccc(C(F)(F)F)cn2)c2ccc3cccnc3c2O)CC1 (stereo not drawn) 836 nM
Oc1c(C(c2ccccn2)N2CCC(Cc3ccccc3)CC2)cc(Cl)c2cccnc12 (stereo not drawn) 1230 nM
CC(C)(C)OC(=O)N1CCN(C(c2ccccn2)c2cc(Cl)c3cccnc3c2O)CC1 (stereo not drawn) 1370 nM
CN1CCN(C(c2ncccn2)c2ccc3cccnc3c2O)CC1 (stereo not drawn) 2690 nM
Oc1c(C(NC2CCCCC2)c2ccccn2)ccc2cccnc12 (stereo not drawn) 1360 nM
Cc1cccc(C(c2ccc3cccnc3c2O)N2CCN(C)CC2)n1 (stereo not drawn) 2520 nM
Cc1ccc(C(c2ccc3cccnc3c2O)N2CCN(C)CC2)nc1 (stereo not drawn) 1340 nM
Cc1ccnc(C(c2ccc3cccnc3c2O)N2CCN(C)CC2)c1 (stereo not drawn) 1800 nM
COc1ccnc(C(c2ccc3cccnc3c2O)N2CCN(C)CC2)c1 (stereo not drawn) 1260 nM
